Several values for one entry are separate records, joined by “and”; a condition that tells them apart may be missing. Equal values may be shown once.
Experiments:
[1] = system: Frings audiogenic seizure susceptible mice; experiment: Audiogenic seizure susceptibility of Frings mice; type: in vivo
Experimental: All compounds were administered i.p. Varying doses of the compounds were tested. At the predetermined time of peak anticonvulsant effect, individual mice were placed into a round Plexiglas chamber (diameter, 15 cm; height, 18 cm) pitted with an audio transducer (Model A5-ZC; FET Research & Development, Salt Lake City, Utah) and exposed to a high intensity sound stimulus (110 decibels, 11 KHz) for 25 seconds. Animals not displaying tonic forelimb or hindlimb extension were considered protected. The effect of the test compounds on motor performance was assessed by the rotorod test (Dunham and Miya, 1957). For this procedure, mice were tested for their ability to maintain balance on a rotating (6 rpm) knurled Plexiglas rod (1 inch diameter) for one minute. Mice unable to maintain balance in three successive trials during the test period were considered toxic. The median effective dose (ED50) and the median toxic dose (TD50) was calculated by probit analysis (Finney, 1971). For these studies, the dose of each test substance was varied between the limits of 0 and 100% protection and toxicity. The protective index (PI) is TD50/ED50.

mouse = experiment: Pentylenetetrazole-induced threshold seizure model (timed i.v. infusion); type: in vivo; settings: i.c.v. administration
Experimental: The in vivo activity of CGX-031-120 is analyzed using timed intravenous infusion of pentylenetetrazole (White et al., 1995). At time to peak effect, the convulsant solution (0.5% pentylenetetrazole in 0.9% saline containing 10 U.S.P. units/ml heparin sodium) is infused into the tail vein at a constant rate of 0.34 ml/min. The time in seconds from the start of the infusion to the appearance of the first twitch and the onset of clonus is recorded for each drug treated or control animal. The times to each endpoint are converted to mg/kg of pentylenetetrazole for each mouse, and mean and standard error of the mean are calculated.

MT2 = target: T1, MT2 (Homo sapiens, UniProt P49286); experiment: Forskolin stimulated cAMP release from NIH-3T3 cells (MT2); type: cell-based
T1 construct: expressed in transfected cells; host or cells: NIH-3T3 cells
T1 sequence (P49286 1-362): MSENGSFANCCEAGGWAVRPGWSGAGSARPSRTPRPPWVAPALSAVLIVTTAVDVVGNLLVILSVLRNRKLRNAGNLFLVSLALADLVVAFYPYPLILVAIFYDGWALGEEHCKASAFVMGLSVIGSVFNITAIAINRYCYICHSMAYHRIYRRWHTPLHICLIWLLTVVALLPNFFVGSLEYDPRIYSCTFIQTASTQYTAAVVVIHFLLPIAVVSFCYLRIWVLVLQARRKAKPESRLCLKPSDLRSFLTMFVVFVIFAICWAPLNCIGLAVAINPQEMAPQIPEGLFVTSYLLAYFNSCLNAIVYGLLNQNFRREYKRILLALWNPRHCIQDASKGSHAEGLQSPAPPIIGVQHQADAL

in vivo = settings: Frings, mouse
Experimental: (§1) All compounds were administered i.p. Varying doses of the compounds were tested. […] For this procedure, mice were tested for their ability to maintain balance on a rotating (6 rpm) knurled Plexiglas rod (1 inch diameter) for one minute. Mice unable to maintain balance in three successive trials during the test period were considered toxic. […] For these studies, the dose of each test substance was varied between the limits of 0 and 100% protection and toxicity. The protective index (PI) is TD50/ED50.

mice [2] = experiment: Acute pain (tail-flick); type: in vivo; settings: intrathecal
Experimental: Acute pain (tail-flick). CGX-031-120 or saline is administered intrathecally (i.t.) according to the method of Hylden and Wilcox (1980) in a constant volume of 5 μl. Mice are gently wrapped in a towel with the tail exposed. At various time-points following the i.t. injection, the tail is dipped in a water bath maintained at 54 C. and the time to a vigorous tail withdrawal is recorded. If there is no withdrawal by 8 seconds, the tail is removed to avoid tissue damage.

mice [3] = experiment: Elevated platform test for phencyclidine-like behavioral effects; type: in vivo; settings: 15 minutes after i.c.v. administration
Experimental: The in vivo phencyclidine-like behavioral effects of CGX-031-120 is assessed by the elevated platform test as described by Evoniuk et al. (1991). The platform test is a rapid method for evaluating the behavioral effects of phencyclidine-like dissociative anesthetics in mice. […] Alternatively, as a control, a 44.5 nmol dose of MK 801 (dizocilpine) elicited 87.5% drug-induced falls from the elevated platform.

[4] = system: Frings audiogenic seizure-susceptible mice; experiment: Rotorod test of motor performance (toxicity) in Frings mice
Experimental: as §1

mice [5] = experiment: Neuropathic pain, partial sciatic nerve ligation model; settings: mouse, in vivo
Description: Neuropathic pain. The partial sciatic nerve ligation model is used to assess the efficacy of CGX-031-120 in neuropathic pain. Nerve injury is produced according to the methods of Malmberg and Basbaum (1998). Animals are anesthetized with a ketamine/xylazine solution, the sciatic nerve is exposed and tightly ligated with 8-0 silk suture around ⅓ to ½ of the nerve. In sham-operated mice the nerve is exposed, but not ligated. Animals are allowed to recover for at least 1 week before testing is performed. On the testing day, mice are placed in plexiglass cylinders on a wire mesh frame and allowed to habituate for at least 60 minutes. Mechanical allodynia is assessed with calibrated von Frey filaments using the up-down method as described by Chaplan et al. (1994), and the 50% withdrawal threshold is calculated.

mice [6] = experiment: Maximum electroshock (MES) seizure test; type: in vivo; settings: i.p. 30 min before MES
Experimental: The in vivo activity of CGX-031-120 is analyzed using the maximum electroshock (MES) test as described by Syinyard et al. (1952) and Woodbury et al. (1952). In the MES procedure, a tonic seizure is produced in mice (17-26 g) by the delivery of a 50 milliamps current through corneal electrodes for 0.2 sec. Before testing, the animals are allowed food and water ad libitum. Compounds are injected i.p. 30 min before the MES. Reference compounds (such as phenytoin, carbamazepine, phenobarbital, and valproic acid) are tested at the peak of activity and at the dose range reported in the literature. Several mice are used per group. In this test anticonvulsive activity is indicated by the abolition of the hind limb tonic extension.

CF-1 mice = experiment: Hotplate analgesia test after intrathecal injection; type: in vivo; settings: 2.5 nmol intrathecal, 55 C hotplate
Experimental: Intrathecal (it) drug injections are performed as described by Hylden et al. (1980). CGX-031-120 (2.5 nmol) or water vehicle is administered to CF-1 mice (five mice per group) in a volume of 5 μl. Twenty minutes after injection, the body temperature of each animal is determined. Thirty minutes after injection, each animal is placed on a 55 C. hotplate. The latency to the first response (flinch), a spinally mediated behavioral response, and the first hindlimb lick, a centrally organized motor response to acute pain, are recorded. Mice are removed from the hotplate after 60 seconds if no response is observed. Forty-five minutes after injection, motor function for each mouse is tested by determining the latency to first fall from an accelerating rotarod.

CF No. 1 mice = experiment: Maximal electroshock, s.c. pentylenetetrazole seizure threshold and threshold tonic extension tests in CF No. 1 mice; type: in vivo
Experimental: In vivo anticonvulsant activity of CGX-031-120 is analyzed in CF No. 1 mice as described by White et al. (1995), using the maximal electroshock, subcutaneous pentylenetetrazole (Metrazol) seizure threshold and threshold tonic extension test.

CCC(=O)NCCc1c2n(c3ccc(OC)cc13)Cc1ccccc1-2 [CGX-031-120, N-propanol-2-(2-methoxy-6H-isoindolo-[2,1a]-indol-11-yl)-ethanamine]
protective index (PI; TD50/ED50) [1]: > 10 and > 12 | Seizure Score ± S.E.M. ([1]; 50 mg/kg i.p.): 4.5 ± 0.5 | # Protected/# Tested (at 2 hr) ([1]; 50 mg/kg i.p.): 1/8 | Seizure Score ± S.E.M. ([1]; 75 mg/kg i.p.): 4.0 ± 0.65 | # Protected/# Tested (at 2 hr) ([1]; 75 mg/kg i.p.): 2/8 | Seizure Score ± S.E.M. ([1]; 87.5 mg/kg i.p.): 2.38 ± 0.78 | # Protected/# Tested (at 2 hr) ([1]; 87.5 mg/kg i.p.): 5/8 | Seizure Score ± S.E.M. ([1]; 100 mg/kg i.p.): 1.0 ± 0.0 | # Protected/# Tested (at 2 hr) ([1]; 100 mg/kg i.p.): 8/8 | # Prot./# Tested ([1]; 100 mg/kg i.p., time 1/2 hr): 2/4 | # Prot./# Tested ([1]; 100 mg/kg i.p., time 1/4 hr): 1/4 | # Prot./# Tested ([1]; 100 mg/kg i.p., time 1 hr): 3/4 | # Prot./# Tested ([1]; 100 mg/kg i.p., time 2 hr): 4/4 | # Prot./# Tested ([1]; 100 mg/kg i.p., time 4 hr): 4/4 | anti-seizure activity ([1]; Frings mice): found to have anti-seizure activity | Protective Index ([1]; Table 5, TD50/ED50): >12 | P.I. ([1]; Table 6, TD50/ED50): >10 | ED50 ([1]; audiogenic mouse model, read-out: ED50): 77 mg/kg | i.v. pentylenetetrazole seizure threshold (mouse): elevates the i.v. pentylenetetrazole seizure threshold | MT2 Selectivity (MT2; cAMP assay, mt1 vs MT2): 44 | EC50 (MT2; forskolin stimulated cAMP, NIH-3T3 cells): 0.05 nM | TD50 (in vivo; intraperitoneal): > 800 mg/kg | TD50 (in vivo; ip): > 900 mg/kg | TD50 at 2 h (in vivo; ip): > 600 mg/kg | response latency in the tail flick model of acute pain (mice [2]): reduces the response latency | drug-induced falls from the elevated platform (mice [3]): no drug-induced falls | # Toxic/# Tested (at 2 hr) ([4]; 300 mg/kg i.p.): 0/8 | # Toxic/# Tested (at 2 hr) ([4]; 600 mg/kg i.p.): 0/4 | TD50 ([4]; Table 6, i.p., rotorod): >800 mg/kg | TD50 ([4]; audiogenic mouse model): > 900 mg/kg | analgesic activity in a model of neuropathic pain (mice [5]): shows analgesic activity | anti-convulsant activity in the MES test (mice [6]): found to have anti-convulsant activity | analgesic properties (hotplate) (CF-1 mice): potent analgesic properties | anticonvulsant activity (CF No. 1 mice): found to have anticonvulsant activity

From patent publication US20020040018A1, “Subtype selective melatonergics” (priority 2000, published 2002)
